This is an account of results in paper PMC6222847, “Application of HPCCC Combined with Polymeric Resins and HPLC for the Separation of Cyclic Lipopeptides Muscotoxins A–C and Their Antimicrobial Activity” (Molecules : A Journal of Synthetic Chemistry and Natural …, 2018).

Series [1] is described as follows: Partition coefficient (K) in two-phase HPCCC solvent systems. The series is classed as physicochemical. As to conditions: 2 mg extract in 2 mL (1 mL per phase), HPLC-ESI-HRMS. The text has this:
When working with HPCCC, the search for a proper two-phase solvent system has been informed to represent the major part of the work involved in the HPCCC separation. An appropriate two-phase solvent system for HPCCC has to provide a good partition coefficient (0.5 ≤ K ≤ 2.5) for the target compound. […] Additionally, for achieving a good resolution between two closely eluting peaks, the separation factor (α) between the two compounds (α = K2/K1, K2 > K1) should be greater than 1.5 [14, 26]. It is well described that compounds with smaller K values show a poor resolution because they elute closer to the solvent front. On the contrary, those compounds with larger K value are better separated but elute as wider peaks and at later elution times. In the present study, the capacity of different two-phase solvent systems (Table 1) to provide suitable K values of the compounds 1–3 was investigated. The K value is frequently estimated by using HPLC with UV detection, which is calculated by dividing the peak area of the target compound in the upper phase by that of the peak area of the same target compound in the lower phase. However, given that UV chromatogram provided insufficient peak areas for minor muscotoxins, the MS detector was thus used to estimate the K values. By using this approach, the peak area of the molecular ions corresponding to the target compounds were selectively monitored from the base peak chromatogram. As presented in the Table 1, the solvent system 10 (n-hexane, ethyl acetate, ethanol, and water in a ratio of 1:5:1:5) gave suitable K values and a proper separation factor (α) for compounds 2 and 3, as well as a short settling time. […] The improvement of the K value of compound 1 could be achieved by finding out a new solvent system or by modifying the composition of the already selected solvent system. In the present study, the system 10 was acidified by adding acetic acid leading to the system 11 (n-hexane, ethyl acetate, ethanol, water, and acetic acid, 1:5:1:5:1). […] Although the partition coefficients of the target compounds in systems 10 and 11 are strongly correlated, the system 10 ensured a sufficient selectivity (α = 1.5) between the compounds 2 and 3. […] In HPCCC, it is very well established that when the retention of stationary phase is increased, a good chromatographic resolution is achieved. A reduced flow rate of the mobile phase and a high rotational speed of the column favor the retention of the stationary phase inside the HPCCC column. In this study, the flow rate of the mobile phase in the first step and second step of the HPCCC operations was 1 mL/min and the rotational speed was set at 1200 rpm. Moreover, it was observed that a good resolution between the compounds 2 and 3 was achieved when injecting 100 mg of enriched extract.
Different two-phase solvent systems were prepared using n-hexane, ethyl acetate, ethanol, water, and acetic acid in different proportions (Table 1). The prepared solvent systems were investigated for their capacity to provide suitable partition coefficients (K) of the target compounds. In addition, given that the settling time as well as the density difference between the upper and lower phases of each two-phase solvent system are parameters associated with the retention of stationary phase in the column, they were thus estimated and used as selection criteria. For estimating the partition coefficient (Table 1) of the target compound, 2 mg of extract containing the target compounds was dissolved in 2 mL of a given two-phase solvent system (1 mL per each phase). The test tube containing the sample solution was shaken vigorously, and then left, to equilibrate the two phases, for 20 min. Equal volumes of each phase were then analyzed by HPLC-ESI-HRMS to obtain the partition coefficients (K), which were calculated by dividing the peak area of the target compound in the upper phase by the peak area of compound in the lower phase.

In series [2] the test system is Sclerotinia sclerotiorum. The series is described as follows: Disc diffusion antifungal assay. As to conditions: S. sclerotiorum, 250–1.5625 µg/disk, Czapek-Dox medium, mycelium growth after 4 days by image analysis, triplicate. In kind it is cell-based. Here is the method:
Due to the unavailability of enough amounts of isolated compounds, the antifungal activity for all the isolated compounds (1–3) was initially tested only against plant pathogenic fungi Sclerotinia sclerotiorum by determining the minimum inhibitory concentration (MIC) using disc diffusion assay. Compounds (1–3) were dissolved in MeOH at different concentrations and further transferred (20 µL) on layer filter paper targets (size 5 mm) to get desired concentrations of 250–1.5625 µg/disk. Discs were placed at the border of Petri dish (average 35 mm) containing Czapek-Dox medium. The mycelial target of the plant pathogenic fungus S. sclerotiorum (0.5 cm in diameter) was inoculated on the opposite sites of dish. […] The growth of fungal mycelium after 4 days in the presence of the studied compounds was evaluated using digital image analysis. […] The images (TIFF format) were converted by thresholds, and the area of binary objects corresponding to size of grown mycelium was measured and evaluated by software NIS-ELEMENTS AR ver. […] The inhibition of the mycelium growth (inhibition zone in percentages) was calculated as the difference between the measurements (in px) of the total area of fungal mycelium (negative controls) and of the area that is covered with mycelium (treated dishes).

In series [3] the test system is Bacillus subtilis. The series is described as follows: Broth two-fold microdilution. Particulars: B. subtilis CCM1999; Mueller Hinton broth, 300–0.0732 µg/mL (control 32–0.0625), 37 °C 16 h, triplicate; MIC = least concentration showing any inhibition in the growth. The series is classed as cell-based. As for the experimental part: Furthermore, compound 1 was evaluated for its antimicrobial activity against five bacterial isolates; S. aureus (CCM3824), B. subtilis (CCM1999), S. sanguinis (CCM4047), P. aeruginosa (CCM1959), E. coli (CCM2024), and eight fungal isolates; C. friedrichii (BCC020_2879), A. fumigatus (BCC020_2845), F. oxysporum (BCC020_2866), T. harzianum (BCC020_0606), B. sorokiniana (BCC020_1571), M. cucumerina (BCC020_2872), C. globosum (BCC020_2527), and A. alternata (BCC020_0609) using broth two-fold microdilution method following the standard protocol. Briefly, for broth microdilution method, the compounds were serially diluted at varying concentrations between 300 and 0.0732 µg/mL in Mueller Hinton broth (for bacteria) and Muller Hinton broth with 2% glucose (for fungi) in 96-well plates. Culture broth (0.1 mL) was added to each well containing the compound. […] MIC95 was determined as the concentration required to inhibit or kill 95% of bacterial isolates spectroscopically at 600 nm. Minimum fungicidal concentration (MFCs) were determined after 48 h incubation by removing 10 µL of the contents from wells showing no visible growth and spreading them on to Sabouraud dextrose agar plates. The plates were then incubated for 72 h and MFCs were determined as the concentrations which killed 95–100% of the inoculum. […]

Series [4] has as its system Candida friedrichii. Kind of series: microbe, parasite or virus in culture. The series is classed as cell-based. Particulars: Yamadazyma friedrichii; C. friedrichii BCC020_2879; Muller Hinton broth with 2% glucose, 300–0.0732 µg/mL (control 32–0.0625), 30 °C 48 h, triplicate; least concentration showing any inhibition; read-out: MIC. As for the experimental part:
(§1) Furthermore, compound 1 was evaluated for its antimicrobial activity against five bacterial isolates; S. aureus (CCM3824), B. subtilis (CCM1999), S. sanguinis (CCM4047), P. aeruginosa (CCM1959), E. coli (CCM2024), and eight fungal isolates; C. friedrichii (BCC020_2879), A. fumigatus (BCC020_2845), F. oxysporum (BCC020_2866), T. harzianum (BCC020_0606), B. sorokiniana (BCC020_1571), M. cucumerina (BCC020_2872), C. globosum (BCC020_2527), and A. alternata (BCC020_0609) using broth two-fold microdilution method following the standard protocol. Briefly, for broth microdilution method, the compounds were serially diluted at varying concentrations between 300 and 0.0732 µg/mL in Mueller Hinton broth (for bacteria) and Muller Hinton broth with 2% glucose (for fungi) in 96-well plates. Culture broth (0.1 mL) was added to each well containing the compound. Plates were incubated aerobically at 37 °C for 16 h (bacteria) and 30 °C for 48 h (for fungi). Negative controls were prepared separately with respective organisms in the same culture media with methanol (the dissolving solvent). Positive controls were also prepared separately with respective organisms. Erythromycin (32–0.0625 µg/mL) was used as positive control for S. aureus and S. sanguinis, gentamycin (32–0.0625 µg/mL) was used as positive control for Bacillus subtilis, E. coli, and P. aeruginosa, whereas fluconazole (32–0.0625 µg/mL) was used as positive control for all the fungal isolates. After incubation, the well with the least concentration of the compound showing any inhibition in the growth was taken as the MIC value for the respective organisms. MIC95 was determined as the concentration required to inhibit or kill 95% of bacterial isolates spectroscopically at 600 nm. Minimum fungicidal concentration (MFCs) were determined after 48 h incubation by removing 10 µL of the contents from wells showing no visible growth and spreading them on to Sabouraud dextrose agar plates. The plates were then incubated for 72 h and MFCs were determined as the concentrations which killed 95–100% of the inoculum. All the experiments were done in triplicate.

Series [5] concerns Monographella cucumerina. Kind of series: microbe, parasite or virus in culture. The series is classed as cell-based. Particulars: Plectosphaerella cucumerina; M. cucumerina BCC020_2872; Muller Hinton broth with 2% glucose, 300–0.0732 µg/mL (control 32–0.0625), 30 °C 48 h, triplicate; least concentration showing any inhibition; read-out: MIC. As for the experimental part:
as §1

Series [6] deals with Fusarium oxysporum. The series is described as follows: microbe, parasite or virus in culture. The series is classed as cell-based. As to conditions: Fusarium oxysporum; F. oxysporum BCC020_2866; Muller Hinton broth with 2% glucose, 300–0.0732 µg/mL (control 32–0.0625), 30 °C 48 h, triplicate; least concentration showing any inhibition; read-out: MIC. Here is the method:
as §1

Series [7] relates to Alternaria alternata. Kind of series: microbe, parasite or virus in culture. Particulars: Alternaria alternata; A. alternata BCC020_0609; Muller Hinton broth with 2% glucose, 300–0.0732 µg/mL (control 32–0.0625), 30 °C 48 h, triplicate; least concentration showing any inhibition; read-out: MIC. The series is classed as cell-based. As for the experimental part:
as §1

The test system of series [8] is Chaetomium globosum. Kind of series: microbe, parasite or virus in culture. In kind it is cell-based. As to conditions: Chaetomium globosum; C. globosum BCC020_2527; Muller Hinton broth with 2% glucose, 300–0.0732 µg/mL (control 32–0.0625), 30 °C 48 h, triplicate; least concentration showing any inhibition; read-out: MIC. As for the experimental part: as §1
Series [9] relates to Trichoderma harzianum. Kind of series: microbe, parasite or virus in culture. The series is classed as cell-based. As to conditions: Trichoderma harzianum; T. harzianum BCC020_0606; Muller Hinton broth with 2% glucose, 300–0.0732 µg/mL (control 32–0.0625), 30 °C 48 h, triplicate; least concentration showing any inhibition; read-out: MIC. Here is the method: as §1
Series [10] concerns Aspergillus fumigatus. Kind of series: microbe, parasite or virus in culture. In kind it is cell-based. Particulars: Aspergillus fumigatus; A. fumigatus BCC020_2845; Muller Hinton broth with 2% glucose, 300–0.0732 µg/mL (control 32–0.0625), 30 °C 48 h, triplicate; least concentration showing any inhibition; read-out: MIC. Here is the method:
as §1

The mark [11] stands for this setting: solvent system 4, n-Hex–EtOAc–EtOH–H2O 7:3:5:5, shaken, 20 min, K = peak area UP/LP.
The mark [12] stands for this setting: solvent system 5, n-Hex–EtOAc–EtOH–H2O 6:4:5:5, shaken, 20 min, K = peak area UP/LP.
The mark [13] stands for this setting: solvent system 7, n-Hex–EtOAc–EtOH–H2O 4:5:4:5, shaken, 20 min, K = peak area UP/LP.
The mark [14] stands for this setting: solvent system 8, n-Hex–EtOAc–EtOH–H2O 3:5:3:5, shaken, 20 min, K = peak area UP/LP.
[15] abbreviates: solvent system 9, n-Hex–EtOAc–EtOH–H2O 2:5:2:5, shaken, 20 min, K = peak area UP/LP.
[16] abbreviates: solvent system 11, n-Hex–EtOAc–EtOH–H2O–AcOH 1:5:1:5:1, shaken, 20 min, K = peak area UP/LP.

≈ marks a conversion by molar mass, not a printed value. *1 amine or outer side, *2 acyl side, *3 side chain or, on linkers, in order; H or OH if unused. Where a SMILES comes first, the peptide text is derived from it. [ ]: non-standard residue; d: D form. X1 = CCCCCC(O)CC(N[*:1])C(O)C(=O)[*:2]; X2 = CC1C[C@@H](C(=O)[*:2])N([*:1])C1; d(aIle) = CC[C@H](C)[C@@H](N)C(=O)O; Dhb = C/C=C(\N)C(=O)O

Take `C/C=C1\NC(=O)[C@H](CO)NC(=O)[C@@H]([C@@H](C)CC)NC(=O)[C@H](Cc2ccccc2)NC(=O)[C@@H]2CC(C)CN2C(=O)CNC(=O)[C@@H](CCC(N)=O)NC(=O)C(O)C(CC(O)CCCCC)NC(=O)[C@@H]2CCCN2C(=O)[C@@H]([C@@H](C)CC)NC(=O)[C@H](CO)NC1=O` (stereo partly shown) [compound 3, muscotoxin B] (cyclo([Dhb]S[d(aIle)]P[X1][dQ]G[X2]F[d(aIle)]S)): the “Partition Coefficient (K) of Muscotoxins” value was 0.01 in [1] (solvent system 1, n-Hex–EtOH–H2O 10:5:5, shake test tube, equilibrated 20 min, K = peak area upper phase/lower phase); 0.01 in series [1] (solvent system 2, n-Hex–EtOAc–EtOH–H2O 9:1:5:5, shaken, 20 min, K = peak area UP/LP); 0.02 in series [1] (setting [11]); 0.04 in [1] (setting [12]); 0.01 in series [1] (solvent system 6, n-Hex–EtOAc–EtOH–H2O 5:5:5:5, shaken, 20 min, K = peak area UP/LP); 0.05 in [1] (setting [13]). Besides, the “Partition Coefficient (K) of Muscotoxins” value in series [1] (setting [14]) is 0.27; in series [1] (setting [15]), 1.22; in series [1] (solvent system 10, n-Hex–EtOAc–EtOH–H2O 1:5:1:5, shaken, 20 min, K = peak area UP/LP), 1.41; in [1] (setting [16]), 2.45.
As for muscotoxin C [compound 1], the “Partition Coefficient (K) of Muscotoxins” value in [1] (setting [11]) is 0.01; in [1] (setting [12]), 0.01; in series [1] (setting [13]) it was 0.02; in [1] (setting [14]), 0.08; in [1] (setting [15]), 0.40; in series [1] (setting [16]), 1.09. Also, in [2], the “lowest dose to manifest its activity” value is greater than 250 µg.
gentamycin [reference compound] gave an MIC in [3] of 4 µg/mL.
For the compound `OC(Cn1cncn1)(Cn1cncn1)c1ccc(F)cc1F` [fluconazole, reference compound], the MIC worked out at 8 µg/mL (≈ 26.1 µM) in series [4]; 2 µg/mL (≈ 6.53 µM) in series [5]; 8 µg/mL (≈ 26.1 µM) in series [6]; 2 µg/mL (≈ 6.53 µM) in series [7]; 2 µg/mL (≈ 6.53 µM) in series [8]; 4 µg/mL (≈ 13.1 µM) in series [9]. Further, the MIC in [10] was determined as 32 µg/mL (≈ 104 µM).
